From patent US4550186A, “Binuclear copper (II) carboxylates formed from amine-carboxyboranes” (Duke University, priority 1983, dated 1985)

Target: T1, transfer ribonucleic acid polymerase (Mus musculus, UniProt B2RXC6+P59470)
T1 sequence (B2RXC6 1-1390): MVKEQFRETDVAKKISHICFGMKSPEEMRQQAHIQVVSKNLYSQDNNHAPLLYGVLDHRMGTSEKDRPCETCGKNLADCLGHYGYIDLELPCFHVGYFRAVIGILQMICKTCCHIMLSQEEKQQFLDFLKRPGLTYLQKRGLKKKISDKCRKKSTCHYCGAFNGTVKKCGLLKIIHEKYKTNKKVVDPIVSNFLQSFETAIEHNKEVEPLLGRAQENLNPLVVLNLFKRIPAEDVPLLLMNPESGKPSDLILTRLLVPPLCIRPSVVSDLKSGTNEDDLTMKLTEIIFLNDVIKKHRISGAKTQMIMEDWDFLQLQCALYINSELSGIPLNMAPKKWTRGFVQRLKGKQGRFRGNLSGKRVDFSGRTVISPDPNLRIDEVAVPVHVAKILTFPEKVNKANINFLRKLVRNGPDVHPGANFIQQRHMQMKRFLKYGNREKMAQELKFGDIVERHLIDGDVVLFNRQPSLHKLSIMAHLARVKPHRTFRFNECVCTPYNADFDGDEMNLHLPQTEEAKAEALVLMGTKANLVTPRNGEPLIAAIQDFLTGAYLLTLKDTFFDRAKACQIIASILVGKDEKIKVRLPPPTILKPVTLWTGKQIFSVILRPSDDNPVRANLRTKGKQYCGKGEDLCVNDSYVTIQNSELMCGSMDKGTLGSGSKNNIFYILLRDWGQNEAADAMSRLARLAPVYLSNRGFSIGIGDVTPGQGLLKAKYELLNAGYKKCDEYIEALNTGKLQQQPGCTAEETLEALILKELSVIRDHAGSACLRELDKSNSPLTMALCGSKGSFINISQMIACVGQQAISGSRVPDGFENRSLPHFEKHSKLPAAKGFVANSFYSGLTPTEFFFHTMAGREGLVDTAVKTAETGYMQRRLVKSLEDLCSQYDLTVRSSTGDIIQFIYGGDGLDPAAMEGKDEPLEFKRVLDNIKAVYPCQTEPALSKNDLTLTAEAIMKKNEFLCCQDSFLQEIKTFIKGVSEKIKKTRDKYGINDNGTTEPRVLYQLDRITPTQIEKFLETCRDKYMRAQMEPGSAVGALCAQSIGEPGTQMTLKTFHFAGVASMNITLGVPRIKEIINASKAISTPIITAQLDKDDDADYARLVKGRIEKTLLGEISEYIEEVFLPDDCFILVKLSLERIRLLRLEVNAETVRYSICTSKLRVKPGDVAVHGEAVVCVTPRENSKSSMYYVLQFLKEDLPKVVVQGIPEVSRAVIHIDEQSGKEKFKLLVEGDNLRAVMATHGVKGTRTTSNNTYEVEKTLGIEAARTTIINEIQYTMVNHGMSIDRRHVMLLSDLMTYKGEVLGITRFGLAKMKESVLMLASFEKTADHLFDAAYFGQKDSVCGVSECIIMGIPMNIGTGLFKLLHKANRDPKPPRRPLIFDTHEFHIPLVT
T1 sequence (P59470 1-1133): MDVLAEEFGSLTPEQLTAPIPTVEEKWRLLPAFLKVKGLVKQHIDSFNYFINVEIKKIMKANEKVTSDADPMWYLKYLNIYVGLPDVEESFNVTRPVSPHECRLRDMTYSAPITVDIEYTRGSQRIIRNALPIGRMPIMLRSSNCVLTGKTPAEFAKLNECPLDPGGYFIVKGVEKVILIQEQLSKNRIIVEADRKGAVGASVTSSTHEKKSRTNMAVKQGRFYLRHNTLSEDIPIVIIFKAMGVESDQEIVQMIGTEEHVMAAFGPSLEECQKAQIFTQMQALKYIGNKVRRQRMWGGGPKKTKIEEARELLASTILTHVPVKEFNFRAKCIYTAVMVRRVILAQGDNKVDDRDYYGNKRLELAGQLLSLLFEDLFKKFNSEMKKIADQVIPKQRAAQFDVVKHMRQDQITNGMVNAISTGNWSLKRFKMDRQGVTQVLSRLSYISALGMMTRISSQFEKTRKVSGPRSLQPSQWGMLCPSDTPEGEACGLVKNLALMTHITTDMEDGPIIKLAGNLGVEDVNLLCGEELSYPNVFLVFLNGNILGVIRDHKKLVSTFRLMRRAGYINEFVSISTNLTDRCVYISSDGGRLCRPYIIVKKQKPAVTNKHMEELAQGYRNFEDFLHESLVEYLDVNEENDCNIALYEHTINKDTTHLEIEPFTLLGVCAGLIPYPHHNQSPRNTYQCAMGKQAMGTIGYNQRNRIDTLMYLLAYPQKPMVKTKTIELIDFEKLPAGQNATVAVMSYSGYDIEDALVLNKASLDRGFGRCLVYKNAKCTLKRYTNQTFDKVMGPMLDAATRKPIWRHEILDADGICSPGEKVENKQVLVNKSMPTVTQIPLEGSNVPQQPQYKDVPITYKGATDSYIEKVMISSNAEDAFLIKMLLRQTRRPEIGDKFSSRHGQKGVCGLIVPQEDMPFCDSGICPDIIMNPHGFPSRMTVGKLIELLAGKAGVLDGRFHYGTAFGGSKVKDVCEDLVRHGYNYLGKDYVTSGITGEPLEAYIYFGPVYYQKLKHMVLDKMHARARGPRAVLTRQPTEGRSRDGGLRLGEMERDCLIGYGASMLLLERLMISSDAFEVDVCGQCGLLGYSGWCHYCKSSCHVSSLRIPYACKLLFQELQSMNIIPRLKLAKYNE
Test: In vivo transfer ribonucleic acid polymerase activity
Method: CF1 male mice (~30 g) were implanted with 2×10^6 Ehrlich ascites tumor cells, intraperitoneally on Day 0. Compound I was suspended by homogenation in 0.05% polysorbate.80-water and administered intraperitoneally at 10 and 20 mg/kg for 9 days to determine its effectiveness for inhibition of tumor growth. Mice were sacrificed on Day 10, and the ascites fluid was collected from the peritoneal cavity. The volume and ascrit (packed cell volume) were determined for each animal and the percent inhibition of tumor growth was calculated. For the metabolic studies, mice were treated on Days 8 and 9 with 10 mg/kg of Compound I, intraperitoneally. The animal was sacrificed on Day 10 and the ascites fluid harvested. The in vitro metabolic studies were performed at […] final concentration of Compound I.
In vitro and in vivo nuclear deoxyribonucleic acid polymerase activity was determined on isolated Ehrlich ascites cell nuclei. The incubation was that described by Sawada et al [Can. Res., 34, 3341 (1974)] except that [methyl-^3 H] deoxythymidine triphosphate (82.4 Ci/mmol) was used. The acid insoluble nucleic acid was collected on GF/F filters and counted. Nuclear ribonucleic acid polymerase activities were determined on enzymes isolated from nuclei. […] The acid insoluble ribonucleic acid was collected on nitrocellulose filters and counted.

{Cu[(CH3)3 N.BH2 CO2 ]2.(CH3)3 N.BH2 COOH} [Compound I]
transfer ribonucleic acid polymerase activity suppressed: 37%
Transfer ribonucleic acid polymerase activity (10 mg/kg/day I.P. on Days 8 and 9): 63 ± 7 % Control
